pIC50: −log10 of the molar value. Active and inactive are the calls of the source. No cut-off for these calls is given here.
Key:
[1] = target: T1, Protein arginine N-methyltransferase 5 (Homo sapiens, UniProt O14744); assay: Displacement of [3H]-SAM from PRMT5 (unknown origin) using peptide substrate preincubated for 15 mins followed by substrate addition for 60 mins by radioactive biochemical assay
[2] = target: T1, Protein arginine N-methyltransferase 5; assay: Displacement of [3H]-SAM from PRMT5 (unknown origin) at 10 uM using peptide substrate preincubated for 15 mins followed by substrate addition for 60 mins by radioactive biochemical assay relative to control
A-375 [3] = assay: Antiproliferation activity against human A-375 cells assessed as cell growth inhibition incubated for 5 days by CCK-8 assay; conditions: A-375, 120 h
[4] = Metabolic stability in human liver microsomes assessed as half life incubated for 10 mins measured up to 60 mins in presence of NADPH by LC-MS/MS analysis; assay type: ADME, Microsome
[5] = target: T1, Protein arginine N-methyltransferase 5; assay: Inhibition of PRMT5 in human A-375 cells assessed as decrease in […] levels measured after 48 hrs by Western blot analysis; assay type: cell-based; conditions: dose 0.5-8 µM, DDE = dose-dependent effect
[6] = target: T1, Protein arginine N-methyltransferase 5; assay: Competitive inhibition of PRMT5 (unknown origin) at 0.001 to 100000 nM using histone H4 (1 to 21 residues) as substrate incubated for 120 mins in presence of different concentrations of SAM by AlphaLISA assay; conditions: dose 0.001-100000 nM
Mus musculus [7] = assay: In vivo inhibition of PRMT5 in human A-375 cells xenografted in BALB/c mouse assessed as reduction in H4R3me2s levels in tumor tissue at 75 mg/kg, po qd for 19 days measured after 3 weeks by Western blot analysis; assay type: functional, organism-based; conditions: time 19.0 day
MDA-MB-453 = assay: Antiproliferation activity against human MDA-MB-453 cells assessed as cell growth inhibition incubated for 5 days by CCK-8 assay; assay type: functional, cell-based; conditions: dose <= 10.0 µM, time 5.0 day, DDE = dose-dependent effect
A-375 [8] = assay: Induction of apoptosis in human A-375 cells incubated for 48 hrs by Annexin-V FITC/PI staining based flow cytometry analysis; assay type: functional, cell-based; conditions: dose 0.5-4 µM, DDE = dose-dependent effect
MDA-MB-231 = assay: Antiproliferation activity against human MDA-MB-231 cells assessed as cell growth inhibition incubated for 5 days by CCK-8 assay; assay type: functional, cell-based; conditions: dose <= 10.0 µM, time 5.0 day, DDE = dose-dependent effect
SNU-423 = assay: Antiproliferation activity against human SNU-423 cells assessed as cell growth inhibition incubated for 5 days by CCK-8 assay; assay type: functional, cell-based; conditions: dose <= 10.0 µM, time 5.0 day, DDE = dose-dependent effect
MV4-11 = assay: Antiproliferation activity against human MV4-11 cells assessed as cell growth inhibition incubated for 5 days by CCK-8 assay; assay type: functional, cell-based; conditions: dose <= 10.0 µM, time 5.0 day, DDE = dose-dependent effect
MOLM-13 = assay: Antiproliferation activity against human MOLM-13 cells assessed as cell growth inhibition incubated for 5 days by CCK-8 assay; assay type: functional, cell-based; conditions: dose <= 10.0 µM, time 5.0 day, DDE = dose-dependent effect
CHL-1 = assay: Antiproliferation activity against human CHL-1 cells assessed as cell growth inhibition incubated for 5 days by CCK-8 assay; assay type: functional, cell-based; conditions: dose <= 10.0 µM, time 5.0 day, DDE = dose-dependent effect
Mus musculus [9] = assay: In vivo inhibition of PRMT5 in human A-375 cells xenografted in BALB/c mouse assessed as reduction in H3R8me2s levels in tumor tissue at 75 mg/kg, po qd for 19 days measured after 3 weeks by Western blot analysis; assay type: functional, organism-based; conditions: time 19.0 day
[10] = target: T1, Protein arginine N-methyltransferase 5; assay: Competitive inhibition of PRMT5 (unknown origin) in presence of MTA
Mus musculus [11] = assay: In vivo inhibition of PRMT5 in human A-375 cells xenografted in BALB/c mouse assessed as reduction in sDMA levels in tumor tissue at 75 mg/kg, po qd for 19 days measured after 3 weeks by Western blot analysis; assay type: functional, organism-based; conditions: time 19.0 day
SNU-449 = assay: Antiproliferation activity against human SNU-449 cells assessed as cell growth inhibition incubated for 5 days by CCK-8 assay; assay type: functional, cell-based; conditions: dose <= 10.0 µM, time 5.0 day, DDE = dose-dependent effect
[12] = Half life in Sprague-Dawley rat at 10 mg/kg, po measured for 0.25 to 24 hrs by LC-MS/MS analysis; assay type: ADME, organism-based; conditions: in vivo, time 0.25-24 hrs
[13] = Cmax in mouse at 10 mg/kg, po measured for 0.25 to 24 hrs by LC-MS/MS analysis; assay type: ADME, organism-based; set-up: time lower 0.25 hrs, dose 10 mg/kg, time upper 24 hrs, route po; conditions: in vivo
[14] = AUC (0 to infinity) in mouse at 3 mg/kg, iv measured for 0.25 to 24 hrs by LC-MS/MS analysis; assay type: ADME, organism-based; set-up: time upper 24 hrs, time lower 0.25 hrs, dose 3 mg/kg, route iv; conditions: in vivo
[15] = Clearance in mouse at 3 mg/kg, iv measured for 0.25 to 24 hrs by LC-MS/MS analysis; assay type: ADME, organism-based; conditions: in vivo, time 0.25-24 hrs
[16] = Half life in mouse at 3 mg/kg, iv measured for 0.25 to 24 hrs by LC-MS/MS analysis; assay type: ADME, organism-based; conditions: in vivo, time 0.25-24 hrs
[17] = Cmax in Sprague-Dawley rat at 10 mg/kg, po measured for 0.25 to 24 hrs by LC-MS/MS analysis; assay type: ADME, organism-based; set-up: time lower 0.25 hrs, dose 10 mg/kg, time upper 24 hrs, route po; conditions: in vivo
[18] = AUC (0 to infinity) in Sprague-Dawley rat at 10 mg/kg, po measured for 0.25 to 24 hrs by LC-MS/MS analysis; assay type: ADME, organism-based; set-up: dose 10 mg/kg, time upper 24 hrs, time lower 0.25 hrs, route po; conditions: in vivo
[19] = Volume of distribution at steady state in mouse at 3 mg/kg, iv measured for 0.25 to 24 hrs by LC-MS/MS analysis; assay type: ADME, organism-based; conditions: in vivo, time 0.25-24 hrs, read-out: Vdss
[20] = Oral bioavailability in mouse at 10 mg/kg, measured for 0.25 to 24 hrs by LC-MS/MS analysis; assay type: ADME, organism-based; conditions: in vivo, time 0.25-24 hrs
[21] = Oral bioavailability in Sprague-Dawley rat at 10 mg/kg, measured for 0.25 to 24 hrs by LC-MS/MS analysis; assay type: ADME, organism-based; conditions: in vivo, time 0.25-24 hrs

T1 sequence (O14744 whole entry): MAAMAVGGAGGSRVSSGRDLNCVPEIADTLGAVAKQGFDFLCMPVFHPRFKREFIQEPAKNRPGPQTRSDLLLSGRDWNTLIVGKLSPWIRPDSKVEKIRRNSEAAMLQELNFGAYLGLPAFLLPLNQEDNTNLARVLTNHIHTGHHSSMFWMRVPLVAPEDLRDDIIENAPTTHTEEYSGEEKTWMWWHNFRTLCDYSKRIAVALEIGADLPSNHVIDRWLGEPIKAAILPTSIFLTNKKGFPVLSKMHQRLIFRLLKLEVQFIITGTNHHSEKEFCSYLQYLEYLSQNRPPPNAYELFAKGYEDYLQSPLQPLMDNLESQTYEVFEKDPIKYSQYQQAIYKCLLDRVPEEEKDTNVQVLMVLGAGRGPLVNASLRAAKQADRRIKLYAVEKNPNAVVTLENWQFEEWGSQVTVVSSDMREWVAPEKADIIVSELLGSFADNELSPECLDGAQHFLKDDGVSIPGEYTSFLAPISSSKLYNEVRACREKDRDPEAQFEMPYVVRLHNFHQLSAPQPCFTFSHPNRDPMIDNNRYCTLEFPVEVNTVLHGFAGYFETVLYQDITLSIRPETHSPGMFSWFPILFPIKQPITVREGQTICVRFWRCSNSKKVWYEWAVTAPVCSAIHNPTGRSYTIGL

Row | SMILES | pIC50 [1] | pIC50 (A-375 [3]) | other results
1 | Nc1ncnc2[nH]c(-c3ccc(OCc4ccccc4)cc3)cc12 | 7.08 |  | inhibition [2]: 81.9%
2 | c1ccc(COc2ccc(-c3cc4c(N5CCC6(CC5)COC6)ncnc4[nH]3)cc2)cc1 | 7.29 |  | 
3 | c1ccc(COc2ccc(-c3cc4c(NC5CCNCC5)ncnc4[nH]3)cc2)cc1 | 7.65 |  | 
4 | CN1CCN(c2ncnc3[nH]c(-c4ccc(OCc5ccccc5)cc4)cc23)CC1 | 7.56 |  | 
5 | Nc1ncnc2c1ccn2Cc1ccc(Oc2ccccc2)cc1 |  |  | inhibition [2]: 14.1%
6 | Cn1cc(-c2ncnc3[nH]c(-c4ccc(OCc5ccccc5)cc4)cc23)cn1 | 6.93 |  | 
7 | C[C@H](Oc1ccc(-c2nc3c(C4=CCNCC4)ncnc3[nH]2)cc1)c1ccccc1 | 7.46 | 5.22 | half-life [4]: 70.1 min
8 | Nc1ncnc2c1ncn2-c1ccc(OCc2ccccc2)cc1 |  |  | inhibition [2]: 20.2%
9 | c1ccc(COc2ccc(-c3cc4c(N5CCCNCC5)ncnc4[nH]3)cc2)cc1 | 7.98 |  | 
10 | c1ccc(COc2ccc(-c3cc4c(N5CCN(C6COC6)CC5)ncnc4[nH]3)cc2)cc1 | 7.40 |  | 
11 | CCN1CCN(c2ncnc3[nH]c(-c4ccc(OCc5ccccc5)cc4)cc23)CC1 | 7.15 |  | 
12 | C[C@H](Oc1ccc(-c2nc3c(C4=CCNCC4)ncnc3[nH]2)c(F)c1)c1ccccc1 | 7.10 | 5.27 | half-life [4]: 41.3 min
13 | c1ccc(COc2ccc(-c3cc4c(N5CCOCC5)ncnc4[nH]3)cc2)cc1 | 7.26 |  | 
14 | C1=C(c2ncnc3[nH]c(-c4ccc(OCc5ccccc5)cc4)nc23)CCNC1 | 7.85 |  | half-life [4]: 2.09 min
15 | CN1CCCN(c2ncnc3[nH]c(-c4ccc(OCc5ccccc5)cc4)cc23)CC1 | 7.78 |  | 
16 | CC(Oc1ccc(-c2nc3c(C4=CCNCC4)ncnc3[nH]2)c(F)c1)c1ccccc1 (racemic) | 6.63 | 5.12 | 
17 | c1ccc(COc2ccc(-c3nc4c(N5CCOCC5)ncnc4[nH]3)cc2)cc1 | 7.35 |  | 
18 | Nc1ncnc2c1ccn2Cc1cccc(Oc2ccccc2)c1 |  |  | inhibition [2]: 15.5%
19 | O=C(NC[C@H](O)CN1CCc2ccccc2C1)c1cc(NC2COC2)ncn1 |  |  | inhibition [5]: Dde
20 | CC(Oc1ccc(-c2cc3c(C4=CCNCC4)ncnc3[nH]2)c(F)c1)c1ccccc1 (racemic) | 7.52 | 5.34 | 
21 | O=C1CN(c2ncnc3[nH]c(-c4ccc(OCc5ccccc5)cc4)cc23)CCN1 | 7.29 |  | 
22 | C1=C(c2ncnc3[nH]c(-c4ccc(OCc5ccccc5)cc4)cc23)CCNC1 | 8.10 |  | half-life [4]: 2.99 min
23 | C[C@@H](Oc1ccc(-c2cc3c(C4=CCNCC4)ncnc3[nH]2)c(F)c1)c1ccccc1 | 6.99 | 5.19 | 

Row | SMILES | pIC50 [1] | pIC50 (A-375 [3]) | other results
24 | C[C@@H](Oc1ccc(-c2nc3c(C4=CCNCC4)ncnc3[nH]2)c(F)c1)c1ccccc1 | 6.80 | 5.06 | 
25 | C[C@H](Oc1ccc(-c2cc3c(C4=CCNCC4)ncnc3[nH]2)cc1F)c1ccccc1 | 7.62 | 5.46 | half-life [4]: 56.2 min
26 | C[C@H](Oc1ccc(-c2cc3c(C4=CCNCC4)ncnc3[nH]2)c(F)c1)c1ccccc1 | 7.66 | 5.76 | half-life [4]: 42.3 min
27 | C[C@@H](Oc1ccc(-c2nc3c(C4=CCNCC4)ncnc3[nH]2)cc1)c1ccccc1 | 6.94 | 5.12 | 
28 | C[C@H](Oc1ccc(-c2cc3c(C4=CCNCC4)ncnc3[nH]2)cc1)c1ccccc1 |  |  | Activity [6]: Active; Activity (Mus musculus [7]): Active; Activity (MDA-MB-453): Dde; Activity (A-375 [8]): Dde; Activity (MDA-MB-231): Dde; Activity (SNU-423): Dde; inhibition [5]: Dde; Activity (MV4-11): Dde; Activity (MOLM-13): Dde; Activity (CHL-1): Dde; Activity (Mus musculus [9]): Active; Activity [10]: Active; Activity (Mus musculus [11]): Active; Activity (SNU-449): Dde
29 | CC(Oc1ccc(-c2nc3c(C4=CCNCC4)ncnc3[nH]2)cc1)c1ccccc1 (racemic) | 7.43 | 5.14 | 
30 | COc1cc(O[C@@H](C)c2ccccc2)ccc1-c1cc2c(C3=CCNCC3)ncnc2[nH]1 | 6.71 | 5.10 | 
31 | c1ccc(COc2ccc(-c3cc4c(N5CCNCC5)ncnc4[nH]3)cc2)cc1 | 7.94 |  | 
32 | C[C@@H]1CN(c2ncnc3[nH]c(-c4ccc(OCc5ccccc5)cc4)cc23)C[C@H](C)N1 | 7.66 |  | 
33 | CN(C)CCN(C)c1ncnc2[nH]c(-c3ccc(OCc4ccccc4)cc3)cc12 | 7.76 |  | 
34 | Cc1cc(-c2cc3c(C4=CCNCC4)ncnc3[nH]2)ccc1O[C@@H](C)c1ccccc1 | 7.09 | 5.08 | half-life [4]: 56.8 min
35 | Nc1ncnc2c1ncn2Cc1ccccc1 |  |  | inhibition [2]: 15.6%
36 | c1ccc(COc2ccc(-c3nc4c(N5CCNCC5)ncnc4[nH]3)cc2)cc1 | 7.94 |  | 
37 | CC(Oc1ccc(-c2cc3c(C4=CCNCC4)ncnc3[nH]2)cc1)c1ccccc1 (racemic) | 7.36 | 5.61 | half-life [4]: 26 min
38 | Nc1ncnc2c1ccn2Cc1ccccc1 |  |  | inhibition [2]: 18.1%
39 | C[C@H](Oc1ccc(-c2cc3c(C4=CCNCC4)ncnc3[nH]2)cc1)c1ccccc1.Cl |  |  | half-life [12]: 177 min; Cmax [13]: 128 ng/mL; AUC [14]: 464 h/ng/mL; clearance [15]: 153 mL/min/kg; half-life [16]: 283 min; Cmax [17]: 27.7 ng/mL; AUC [18]: 205 h/ng/mL; Vd [19]: 47.7 L/kg; bioavailability [20]: 46.2%; bioavailability [21]: 23.7%
40 | c1ccc(COc2ccc(-c3cc4c(-c5cn[nH]c5)ncnc4[nH]3)cc2)cc1 | 6.95 |  | 
41 | C[C@@H](Oc1ccc(-c2cc3c(C4=CCNCC4)ncnc3[nH]2)cc1)c1ccccc1 | 7.32 | 5.59 | half-life [4]: 18.3 min
42 | Nc1ncnc2[nH]c(-c3ccc(OCc4ccccc4)cc3)nc12 | 7.23 |  | inhibition [2]: 84.4%
43 | Nc1ncnc2c1ccn2-c1ccc(OCc2ccccc2)cc1 |  |  | inhibition [2]: 10.5%
44 | CC1(O)CCN(c2ncnc3[nH]c(-c4ccc(OCc5ccccc5)cc4)cc23)CC1 | 7.05 |  | 
45 | Cc1cc(O[C@@H](C)c2ccccc2)ccc1-c1cc2c(C3=CCNCC3)ncnc2[nH]1 | 7.48 | 5.47 | half-life [4]: 47.3 min

From ChEMBL document CHEMBL5154928, “Structure-Aided Design, Synthesis, and Biological Evaluation of Potent and Selective Non-Nucleoside Inhibitors Targeting Protein Arginine Methyltransferase 5” (J Med Chem, 2022)
